Assay results taken from article PMC4965013, “Open Source Drug Discovery with the Malaria Box Compound Collection for Neglected Diseases and Beyond” (PLoS Pathogens, 2016).

Legend:
[1] = system: P. falciparum 3D7 trophozoites; assay: Metabolomic fingerprint profiling LC-MS; assay type: cell-based, Plasmodium falciparum; design: UDP-D-glucose / ADP-D-glucose: unit not given here; conditions: for Acetyllysine / N-acetyl-L-ornithine / N-carbamoyl-L-aspartate / NADPH / dAMP / dCMP / dTDP / dTMP / dTTP / dihydroorotate / orotate / DLH / DLS/SDL/SID / PD / PEE / PVNF / 3-phosphoglycerate / ADP-D-glucose / ATP / CDP / D-sedoheptulose-1/7-phosphate / FAD / GMP / NAD+ / NADP+ / Octoluse Bisphosphate / Pyroglutamic acid / UDP-D-glucose / UDP-D-glucuronate / UDP-N-acetyl-glucosamine / UDP / UMP / UTP / a-ketoglutarate / citrate/isocitrate / cytidine / dATP / dGMP/AMP / fumarate / glucose-1/6-phosphate / glycerate / guanine / guanosine / hypoxanthine / indole / inosine / nicotinate / ornithine / phosphoenolpyruvate / pyruvate / ribose-phosphate / sarcosine/alanine / sn-glycerol-3-phosphate / succinate/methylmalonic acid / uridine / xanthosine: S2 Table Metabolomics; for Acetyllysine: metabolite Acetyllysine; for N-acetyl-L-ornithine: metabolite N-acetyl-L-ornithine; for N-carbamoyl-L-aspartate: metabolite N-carbamoyl-L-aspartate; for NADPH: metabolite NADPH; for dAMP: metabolite dAMP; for dCMP: metabolite dCMP; for dTDP: metabolite dTDP; for dTMP: metabolite dTMP; for dTTP: metabolite dTTP; for dihydroorotate: metabolite dihydroorotate; for orotate: metabolite orotate; for DLH: peptide DLH; for DLS/SDL/SID: peptide DLS/SDL/SID; for PD: peptide PD; for PEE: peptide PEE; for PVNF: peptide PVNF; for 3-phosphoglycerate: metabolite 3-phosphoglycerate; for ADP-D-glucose: metabolite ADP-D-glucose; for ATP: metabolite ATP; for CDP: metabolite CDP; for CDP / D-sedoheptulose-1/7-phosphate / GMP / Octoluse Bisphosphate / UDP / UMP / UTP / citrate/isocitrate / dGMP/AMP / fumarate / glucose-1/6-phosphate / glycerate / guanine / guanosine / inosine / pyruvate / sarcosine/alanine / succinate/methylmalonic acid / uridine / xanthosine: change in metabolite level after compound treatment; for D-sedoheptulose-1/7-phosphate: metabolite D-sedoheptulose-1/7-phosphate; for FAD: metabolite FAD; for GMP: metabolite GMP; for NAD+: metabolite NAD+; for NADP+: metabolite NADP+; for Octoluse Bisphosphate: metabolite Octoluse Bisphosphate; for Pyroglutamic acid: metabolite Pyroglutamic acid; for UDP-D-glucose: metabolite UDP-D-glucose; for UDP-D-glucuronate: metabolite UDP-D-glucuronate; for UDP-N-acetyl-glucosamine: metabolite UDP-N-acetyl-glucosamine; for UDP: metabolite UDP; for UMP: metabolite UMP; for UTP: metabolite UTP; for a-ketoglutarate: metabolite a-ketoglutarate; for citrate/isocitrate: metabolite citrate/isocitrate; for cytidine: metabolite cytidine; for dATP: metabolite dATP; for dGMP/AMP: metabolite dGMP/AMP; for fumarate: metabolite fumarate; for glucose-1/6-phosphate: metabolite glucose-1/6-phosphate; for glycerate: metabolite glycerate; for guanine: metabolite guanine; for guanosine: metabolite guanosine; for hypoxanthine: metabolite hypoxanthine; for indole: metabolite indole; for inosine: metabolite inosine; for 2_3-Diphosphoglyceric acid / 4-phosphopantothenate / 6-phospho-D-gluconate / FMN / IMP / Pyrophosphate / Sedoheptoluse bisphosphate / cyclic-AMP / glutathione disulfide / lactate / myo-inositol: metabolite level change after treatment; for nicotinate: metabolite nicotinate; for ornithine: metabolite ornithine; for phosphoenolpyruvate: metabolite phosphoenolpyruvate; for pyruvate: metabolite pyruvate; for ribose-phosphate: metabolite ribose-phosphate; for sarcosine/alanine: metabolite sarcosine/alanine; for sn-glycerol-3-phosphate: metabolite sn-glycerol-3-phosphate; for succinate/methylmalonic acid: metabolite succinate/methylmalonic acid; for uridine: metabolite uridine; for xanthosine: metabolite xanthosine
[2] = system: P. falciparum; assay: EC50 listed in S2 Table Metabolomics (used to set the concentration tested); assay type: cell-based; conditions: Plasmodium falciparum; EC50 used for Factor_XEC50 in metabolomics; read-out: EC50_nM

COc1ccc(Br)cc1C1Nc2ccc3ccccc3c2C2=C1C(=O)CC(c1ccccc1)C2 (stereo not shown) [MMV020885]
Acetyllysine [1]: -0.2018
N-acetyl-L-ornithine [1]: 0.05879
N-carbamoyl-L-aspartate [1]: 0.2499
NADPH [1]: 0.3881
dAMP [1]: -0.07633
dCMP [1]: -0.1829
dTDP [1]: -0.08159
dTMP [1]: -0.06085
dTTP [1]: 0.08356
dihydroorotate [1]: 0.4211
orotate [1]: -0.07163
DLH [1]: 0.1131
DLS/SDL/SID [1]: 0.0252
PD [1]: -0.01204
PEE [1]: -0.02185
PVNF [1]: 0.06588
3-phosphoglycerate [1]: 0.1773
ADP-D-glucose [1]: 0.1062
ATP [1]: 0.1529
CDP [1]: -0.1573
D-sedoheptulose-1/7-phosphate [1]: -0.3333
FAD [1]: 0.09744
GMP [1]: 0.2606
NAD+ [1]: -0.4069
NADP+ [1]: 0.1167
Octoluse Bisphosphate [1]: 0.1001
Pyroglutamic acid [1]: 0.05012
UDP-D-glucose [1]: 0.09185
UDP-D-glucuronate [1]: 0.09622
UDP-N-acetyl-glucosamine [1]: 0.0596
UDP [1]: -0.2367
UMP [1]: 0.2791
UTP [1]: -0.3268
a-ketoglutarate [1]: 0.1759
citrate/isocitrate [1]: -0.004418
cytidine [1]: -0.005151
dATP [1]: 0.1038
dGMP/AMP [1]: -0.1164
fumarate [1]: 0.1396
glucose-1/6-phosphate [1]: 0.3285
glycerate [1]: 0.153
guanine [1]: 0.03354
guanosine [1]: 0.1241
hypoxanthine [1]: 0.09912
indole [1]: 0.3168
inosine [1]: 0.1551
2_3-Diphosphoglyceric acid [1]: 0.06597
4-phosphopantothenate [1]: 0.04165
6-phospho-D-gluconate [1]: 0.04292
FMN [1]: 0.1362
IMP [1]: 0.02368
Pyrophosphate [1]: 0.2656
Sedoheptoluse bisphosphate [1]: 0.01639
cyclic-AMP [1]: -0.09684
glutathione disulfide [1]: 0.06546
lactate [1]: 0.1283
myo-inositol [1]: 0.176
nicotinate [1]: 0.1246
ornithine [1]: -0.2474
phosphoenolpyruvate [1]: 0.1975
pyruvate [1]: 0.1649
ribose-phosphate [1]: 0.4239
sarcosine/alanine [1]: -0.04603
sn-glycerol-3-phosphate [1]: 0.03018
succinate/methylmalonic acid [1]: 0.08193
uridine [1]: 0.101
xanthosine [1]: 0.04674
EC50 [2]: 180 nM

CCc1c(C)c(=N)c2ccccc2n1C [MMV006278]
Acetyllysine [1]: -0.2738
N-acetyl-L-ornithine [1]: -0.3387
N-carbamoyl-L-aspartate [1]: 0.04339
NADPH [1]: -0.1545
dAMP [1]: -0.2592
dCMP [1]: 0.05199
dTDP [1]: -0.2955
dTMP [1]: -0.278
dTTP [1]: 0.1315
dihydroorotate [1]: 0.1029
orotate [1]: -0.07528
DLH [1]: 0.1151
DLS/SDL/SID [1]: -0.1067
PD [1]: -0.1923
PEE [1]: 0.09363
PVNF [1]: -0.2186
3-phosphoglycerate [1]: -0.1758
ADP-D-glucose [1]: -0.3132
ATP [1]: -0.07819
CDP [1]: -0.1774
D-sedoheptulose-1/7-phosphate [1]: -0.2519
FAD [1]: -0.07776
GMP [1]: -0.3571
NAD+ [1]: -0.07608
NADP+ [1]: -0.2182
Octoluse Bisphosphate [1]: -0.2383
Pyroglutamic acid [1]: -0.07564
UDP-D-glucose [1]: -0.16
UDP-D-glucuronate [1]: -0.1623
UDP-N-acetyl-glucosamine [1]: -0.2266
UDP [1]: -0.2326
UMP [1]: -0.3171
UTP [1]: 0.05042
a-ketoglutarate [1]: 0.05252
citrate/isocitrate [1]: 0.03563
cytidine [1]: -0.182
dATP [1]: 0.1448
dGMP/AMP [1]: -0.3534
fumarate [1]: -0.3107
glucose-1/6-phosphate [1]: -0.535
glycerate [1]: -0.4983
guanine [1]: -0.2094
guanosine [1]: -0.1411
hypoxanthine [1]: 0.04937
indole [1]: -0.04764
inosine [1]: -0.3767
2_3-Diphosphoglyceric acid [1]: -0.2671
4-phosphopantothenate [1]: -0.1093
6-phospho-D-gluconate [1]: -0.1749
FMN [1]: 0.06658
IMP [1]: -0.1794
Pyrophosphate [1]: -0.2417
Sedoheptoluse bisphosphate [1]: -0.1437
cyclic-AMP [1]: -0.03098
glutathione disulfide [1]: -0.1999
lactate [1]: 0.04854
myo-inositol [1]: 0.07173
nicotinate [1]: -0.02818
ornithine [1]: 0.04171
phosphoenolpyruvate [1]: -0.1381
pyruvate [1]: -0.06156
ribose-phosphate [1]: 0.02401
sarcosine/alanine [1]: -0.2797
sn-glycerol-3-phosphate [1]: -0.6565
succinate/methylmalonic acid [1]: -0.7483
uridine [1]: -0.02002
xanthosine [1]: -0.104
EC50 [2]: 378 nM
